Results as given in ChEMBL document CHEMBL1143917, “Improved synthesis of histone deacetylase inhibitors (HDIs) (MS-275 and CI-994) and inhibitory effects of HDIs alone or in combination with RAMBAs or retinoids on growth of human LNCaP prostate cancer cells and tumor xenografts” (Bioorg Med Chem, 2008).

Columns and labels:
LNCaP [1] = experiment: Cell cycle arrest in human LNCap cells assessed as accumulation at S phase relative to control at 5 uM; assay type: functional
LNCaP [2] = experiment: Cell cycle arrest in human LNCap cells assessed as accumulation at G2/M phase relative to control at 5 uM; assay type: functional
LNCaP [3] = experiment: Antitumor activity against human LNCap cells xenografted SCID mouse model at 10 to 20 mg/kg/day, sc relative to control; assay type: functional; details: route subcutaneous
LNCaP [4] = experiment: Cell cycle arrest in human LNCap cells assessed as accumulation at G1 phase relative to control at 5 uM; assay type: functional
LNCaP [5] = experiment: Antiproliferative activity against human LNCap by MTT assay; assay type: functional, cell-based
LNCaP [6] = experiment: Cell cycle arrest in human LNCap cells assessed as accumulation at G1 phase relative to control at 1 uM; assay type: functional
LNCaP [7] = experiment: Antitumor activity against human LNCap cells xenografted SCID mouse model at 20 to 10 mg/kg/day, sc relative to control; assay type: functional; details: route subcutaneous
LNCaP [8] = experiment: Cell cycle arrest in human LNCap cells assessed as accumulation at G2/M phase relative to control at 1 uM; assay type: functional
LNCaP [9] = experiment: Cell cycle arrest in human LNCap cells assessed as accumulation at S phase relative to control at 1 uM; assay type: functional

CC1=C(/C=C/C(C)=C/C=C/C(C)=C/C(=O)Nc2ccc(O)cc2)C(C)(C)CCC1n1ccnc1 (stereo not given)
Activity (LNCaP [1]): 10.86% | Activity (LNCaP [2]): 0% | Activity (LNCaP [3]): 81.6% | Activity (LNCaP [4]): 89.14%

Nc1ccccc1NC(=O)c1ccc(CNC(=O)OCc2cccnc2)cc1 [ENTINOSTAT]
IC50 (LNCaP [5]): 0.36 µM

CC(=O)Nc1ccc(C(=O)Nc2ccccc2N)cc1 [TACEDINALINE]
IC50 (LNCaP [5]): 7.4 µM

O=C(CCCCCCC(=O)Nc1ccccc1)NO [VORINOSTAT]
Activity (LNCaP [6]): 81.9% | Activity (LNCaP [7]): 97.1% | Activity (LNCaP [8]): 0% | Activity (LNCaP [9]): 18.1%
